Tests used:
[1] = target: T1, K-RAS G12D (Homo sapiens, UniProt P01116, G12D); experiment: Compound depletion assay, K-RAS G12D; format: binding; conditions: G12D protein 20 μM, compound 8 μM, 25° C.
T1 construct: His tag; purchased Stratech
Summary of the method: (§1)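 His-tagged K-RAS (20 μM) in 20 mM HEPES pH 7.5, 150 mM NaCl, 1 mM MgCl2 incubated with 8 μM compound (final) at 25 °C with agitation. At 0, 30, 180, 360, 1440 min, samples were acid/acetonitrile-quenched and remaining free compound quantified by LC-MS/MS against propranolol, as percent of time zero.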

[2] = target: T2, K-RAS G12C (Homo sapiens, UniProt P01116, G12C); experiment: Compound depletion assay, K-RAS G12C; format: binding; conditions: G12C protein 20 μM, compound 8 μM, 25° C.
T2 construct: His tag; purchased Stratech
T2 sequence (P01116 1-188 isoform P01116-2 G12C): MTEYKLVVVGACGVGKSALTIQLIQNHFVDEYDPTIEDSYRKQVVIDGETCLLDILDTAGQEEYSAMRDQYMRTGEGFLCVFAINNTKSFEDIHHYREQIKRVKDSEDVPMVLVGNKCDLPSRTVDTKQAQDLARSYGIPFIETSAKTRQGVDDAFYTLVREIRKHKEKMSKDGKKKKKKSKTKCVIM
Summary of the method: as §1

T1 sequence (P01116 1-188 isoform P01116-2 G12D): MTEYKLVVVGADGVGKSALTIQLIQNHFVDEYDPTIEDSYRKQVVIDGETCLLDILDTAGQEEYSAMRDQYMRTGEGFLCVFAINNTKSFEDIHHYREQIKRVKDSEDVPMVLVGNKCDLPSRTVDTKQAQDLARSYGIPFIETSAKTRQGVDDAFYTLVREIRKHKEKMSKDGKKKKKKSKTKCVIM

Row | Compound | 30 min Category (compound remaining at timepoint) [1] | 3 hr Category (compound remaining at timepoint) [1] | 6 hr Category (compound remaining at timepoint) [1] | 24 hr Category (compound remaining at timepoint) [1] | 30 min Category (compound remaining at timepoint) [2] | 3 hr Category (compound remaining at timepoint) [2] | 6 hr Category (compound remaining at timepoint) [2] | 24 hr Category (compound remaining at timepoint) [2]
1 | C=CC(=O)N1CCN(c2cc(C(=O)Nc3cc(O)cc4ccccc34)nc(OC[C@@H]3CCCN3C)n2)C[C@@H]1CC#N [Example 08, 6-[(3S)-3-(cyanomethyl)-4-prop-2-enoyl-piperazin-1-yl]-N-(3-hydroxy-1-naphthyl)-2-[[(2S)-1-methylpyrrolidin-2-yl]methoxy]pyrimidine-4-carboxamide] | A (≥70% compound remaining at timepoint) | A (≥70% compound remaining at timepoint) | A (≥70% compound remaining at timepoint) | A (≥70% compound remaining at timepoint) | B (30%-70% compound remaining at timepoint) | C (≤30% compound remaining at timepoint) | C (≤30% compound remaining at timepoint) | C (≤30% compound remaining at timepoint)
2 | C=CC(=O)N1CCN(c2cc(C(=O)Nc3ccccc3)nc(OC[C@@H]3CCCN3C)n2)CC1 [Example 18, 2-[[(2S)-1-methylpyrrolidin-2-yl]methoxy]-N-phenyl-6-(4-prop-2-enoylpiperazin-1-yl)pyrimidine-4-carboxamide] |  | A (≥70% compound remaining at timepoint) |  | A (≥70% compound remaining at timepoint) |  | A (≥70% compound remaining at timepoint) |  | A (≥70% compound remaining at timepoint)
3 | C=CC(=O)N1CCN(c2cc(C(=O)Nc3cc(O)cc4ccccc34)nc(OC[C@@H]3CCCN3CC)n2)C[C@@H]1CC#N [Example 51, 6-[(3S)-3-(cyanomethyl)-4-prop-2-enoyl-piperazin-1-yl]-2-[[(2S)-1-ethylpyrrolidin-2-yl]methoxy]-N-(3-hydroxy-1-naphthyl)pyrimidine-4-carboxamide] | A (≥70% compound remaining at timepoint) | A (≥70% compound remaining at timepoint) | A (≥70% compound remaining at timepoint) |  | C (≤30% compound remaining at timepoint) | C (≤30% compound remaining at timepoint) | C (≤30% compound remaining at timepoint) | 

Further lines, results first:

Row | 30 min Category (compound remaining at timepoint) [1] | 3 hr Category (compound remaining at timepoint) [1] | 6 hr Category (compound remaining at timepoint) [1] | 24 hr Category (compound remaining at timepoint) [1] | 30 min Category (compound remaining at timepoint) [2] | 3 hr Category (compound remaining at timepoint) [2] | 6 hr Category (compound remaining at timepoint) [2] | 24 hr Category (compound remaining at timepoint) [2] | Compound
4 | A (≥70% compound remaining at timepoint) | A (≥70% compound remaining at timepoint) | A (≥70% compound remaining at timepoint) |  | A (≥70% compound remaining at timepoint) | A (≥70% compound remaining at timepoint) | A (≥70% compound remaining at timepoint) |  | C=CC(=O)N1CCN(c2cc(C(=O)Nc3cc(O)cc4ccccc34)nc(Cc3ccccc3)n2)C[C@@H]1CC#N [Example 40, 2-benzyl-6-[(3S)-3-(cyanomethyl)-4-prop-2-enoyl-piperazin-1-yl]-N-(3-hydroxy-1-naphthyl)pyrimidine-4-carboxamide]
5 | A (≥70% compound remaining at timepoint) | A (≥70% compound remaining at timepoint) | A (≥70% compound remaining at timepoint) |  | A (≥70% compound remaining at timepoint) | A (≥70% compound remaining at timepoint) | A (≥70% compound remaining at timepoint) |  | C=CC(=O)N1CCN(c2cc(C(=O)Nc3cc(O)cc4ccccc34)nc(-c3cccnc3)n2)C[C@@H]1CC#N [Example 25, 6-[(3S)-3-(cyanomethyl)-4-prop-2-enoyl-piperazin-1-yl]-N-(3-hydroxy-1-naphthyl)-2-(3-pyridyl)pyrimidine-4-carboxamide]
